Holding throughout (type): cell-based
In assay [1] the test system is RPE cells. The assay can be described thus: α-SMA expression (immunostaining) upon TGF-β1 stimulation. The note with it: 5Z-7-oxozeaenol 1 μM pretreatment 1 hour, TGF-β1 2.5 ng/ml, serum-free. The method, then:
FIGS. 2A-2C TAK1 regulates RPE cells EMT phenotype upon TGF-β stimulation. FIG. 2A: RPE cells were serum-starved for 16 hours, pretreated with 5Z-7-oxozeaenol (1 μM) or left untreated for 1 hour. The cells were then treated with TGF-β1 (2.5 ng/ml) as described herein for 24 h and immunostained with α-SMA antibodies (red) and DAPI (blue). Representative photographs of three independent experiments. The histogram in the bottom panel represents quantification of α-SMA antibody pixel intensity. FIG. 2B: RPE cells were serum-starved for 16 hours, then treated with mitomycin C (10 ng/ml) for 3 h. Thereafter, pretreated with 5Z-7-oxozeaenol (1 μM) or Dimethyl sulfoxide (DMSO) for 1 hour. Following this process a scratch was performed in the cell monolayer and the serum free medium was supplemented with TGF-β1 (2.5 ng/ml) or left unsupplemented. Scratches were photo-documented at the indicated times (top panel) and their width was measured using Image-J software. […] Bars are Mean±SD. FIG. 2C: RPE cells were serum-starved for 16 hours then pretreated with 5Z-7-oxozeaenol (1 μM) or SB431542 (10 μM), or DMSO for 1 hour. […] Total MMP-9 activities were processed by gelatin zymography (top panel) and the band intensity values were calculated by Quantity One® 1-D analysis software. […] Data is expressed as the Mean±SD. […]

Assay [2] concerns Smad2/3. The assay can be described thus: Smad2/3 phosphorylation by immuno-blot in RPE cells. Here is the method: FIG. 4A-4C: Inhibition of TAK1 abolishes the activation of TGF-β cascades. FIG. 4A: Serum-starved RPE cells were pretreated with or without with 5Z-7-oxozeaenol (1 μM) for 1 hour and then with TGF-β (2.5 ng/ml) for the indicated times. Total protein extracts were analyzed by western blot using the indicated antibodies. […] FIG. 4B: Levels of phospho-Smad2/3 were quantified and normalized to total Smad2/3 FIG. 4C: Statistical analysis of p-p38 and p-Smad3 activation normalized to p38 and Smad3 respectively, with or without TGF-β stimulation. The histograms present results of 5 independent experiments. Statistics were computed using student t-test (Two tailed distribution equal variance). Data is expressed as the Mean±SD. RPE cells were treated with or without 5Z-7-oxozeaenol followed by TGF-β1 treatment and Smad2/3 phosphorylation patterns were examined by immuno-blots. […] Upon TGF-β1 stimulation, the phosphorylation of p38 increased, reaching a peak at 60 min (FIGS. 4A and C).

Assay [3] deals with RPE cells. As to the kind of experiment: Collagen lattice contraction upon TNFα stimulation. The note with it: 1 μM before 50 ng/ml TNFα, 72 hours. Here is the method: FIG. 9: TAK1 regulates RPE cells contraction upon TNFα stimulation. […] RPE cells were seeded in collagen lattices in serum starvation medium. The cells were pretreated with 1 μM 5Z-7 or 1 hour before adding 50 ng/ml TNFα. Lattice were photo-documented after 72 hours and measured using ImajeJ software. The transition of RPE cells to myofibroblasts is characterized, among other aspects, by increased contractile activity (Umazume et al., Invest Ophthalmol Vis Sci 2013, 54:1150-1159; Sakamoto et al., Curr Eye Res 1994, 13:451-459; West-Mays et al., Int J Biochem Cell Biol 2006, 38:1625-1631; Ma et al., Clinical & experimental ophthalmology 2012, 40:e76-86). To examine whether TAK1 is a general regulator of the EMT process affecting cell contractility, floating collagen matrix contraction assay was performed. The test was carried out in full serum with or without TAK1 inhibitor (FIGS. 5A and 5B). While in the control cells significant contraction was observed after 24 hours, reaching 50% of the initial size, TAK1 inhibition impaired the capacity of the cells to contract. The collagen lattice remained nearly 80% from the initial size (FIGS. 5A and B).

Assay [4] has as its system Smad2/3. As to the kind of experiment: Smad2/3 phosphorylation by immuno-blot in HT29 colon cells. The note with it: HT29 Human colon cells, TGF-β treatment, versus untreated cells. The method, then:
FIG. 11. Inhibition of TAK1 abolishes the activation of TGF-β cascades in colon cells. TGF-β1 up-regulates-Smad 2/3 and p38 activation via TAK1 activity in colon cells. HT29 Human colon cells were treated with or without 5Z-7-oxozeaenol followed by TGF-β treatment. Smad2/3 and p38 phosphorylation patterns were examined by immuno-blots. HT29 Human colon cells were treated as in the previous examples with or without 5Z-7-oxozeaenol, followed by TGF-β treatment. Inhibition of TAK1 was assayed by observation of Smad2/3 and p38 phosphorylation patterns by immuno-blots.

Consider `COc1cc(O)c2c(c1)/C=C/C[C@H](O)[C@H](O)C(=O)/C=C\C[C@H](C)OC2=O` [5Z-7-oxozeaenol], for which the “TGF-β1-stimulated α-SMA expression” value in assay [1] is listed as “significantly attenuated”. Moreover, the “Smad2/3 activation (phospho-Smad2/3)” value in assay [2] (1 μM for 1 hour then TGF-β 2.5 ng/ml) is recorded as “barely detectable”. Moreover, the “ratio of phospho-Smad2/3 to total Smad2/3” value in assay [2] (1 μM, TGF-β1-stimulated, each time point) was “abolished Smad2/3 activation”. Also, the “collagen contraction after EMT stimulation by TNFα” value in assay [3] is “significantly reduced collagen contraction”. Besides, the Smad2/3 phosphorylation entry in assay [4] is reported as “significantly inhibited”.

The values above are taken from patent US10206900B2, “Treatments for fibrotic diseases” (MOR RESEARCH APPLICATIONS LTD., priority 2013, dated 2019).
